Measurements published in patent US20070248646A1, “Use of azurocidin inhibitors in prevention and treatment of ocular vascular leakage” (priority 2006, published 2007).

How the values were obtained:
[1] = system: intravitreal leukocyte accumulation in EIU; test: Intravitreal leukocyte accumulation in Endotoxin-Induced-Uveitis; format: in vivo, Lewis rats; conditions: 24 hours post LPS-injection; aprotinin 50,000KIU at 0, 8, 16 hours; EIU 343.6±11.7
Experimental: (§1) EIU was induced in Lewis rats via footpad injection of 100 μl (1 mg/ml) lipopolysaccharide (LPS). Control animals received an equal volume of saline. The experiments were conducted 24 hours after LPS injection. At this time point, several experimental parameters were assessed.
(§2) To block AZ, animals received 5 ml of aprotinin (Trasylol®; 50,000KIU). The first injection was given at the same time as the footpad injection, followed by a second injection 8 hours later and a third injection 16 hours later. The control animals received and equal amounts of vehicle control. LPS was purchased in lyophilized form from Sigma (#L6511).
To assess leukocyte extravasations into the vitreal cavity during EIU, histological slides of the whole eyes of treated rats were generated and the number of leukocytes in the vitreous cavity of these sections was counted. To do so, whole eyes were placed in 4% paraformaldehyde for fixation. Gradual infiltration of graded alcohols was followed by xylene and finally by liquid paraffin. Paraffin submerged eyes were then cooled to harden. Six-micron sections were cut on a Leica microtome and placed on slides. Sections were stained with hematoxylin and eosin and coverslipped.

[2] = system: retinal leukostasis in EIU; test: Retinal leukostasis in Endotoxin-Induced-Uveitis (ConA staining); format: in vivo, Lewis rats; conditions: 24 hours post EIU induction; aprotinin 50,000KIU at 0, 8, 16 hours; EIU 106.6±6.5, normal 17±1.2; n=6
Experimental: as §1, §2
Under deep anesthesia, a rat's chest cavity was opened, and its left ventricle was cannulated to allow perfusion (Ishida (2003) supra). The rat's right atrium was opened to achieve outflow. […] The eyes were enucleated, and the retinas were dissected and flatmounted in a water-based fluorescence anti-fading medium (Fluoromount; Southern Biotechnology, Birmingham, Ala.) and imaged by fluorescence microscopy (Leica, FITC filter). […] Leukocytes in arteries, veins, and capillaries of each retinal tissue were counted, and the total number of adherent leukocytes per retina was calculated. […]

[3] = system: VEGF-induced blood retinal barrier breakdown; test: VEGF-induced blood retinal barrier breakdown (Evans Blue); format: in vivo, Brown Norway rats
Experimental: This study employed Brown Norway rats, AZ (1 μg, 10 μg, 20 μg), PBS, aprotinin, VEGF164, and polyclonal anti-AZ antibody (1 μg). Briefly, Brown Norway rats received intravitreal injections of AZ (1 μg, 10 μg and 20 μg) in one eye and PBS in the contralateral eye. BRB breakdown was quantified using the Evans Blue (EB) technique at 1 hour, 3 hours, and 24 hours after intravitreal injection of AZ or PBS. To assess whether AZ induced retinal leukostasis, firm leukocyte adhesion was quantified at 3 hours and 24 hours post AZ injection (10 μg) using the ex vivo conconavalin leukostasis assay. To block AZ, rats were treated with a single intravenous injection of aprotinin (30,000KIU), prior to the intravitreal injections. To investigate whether AZ was involved in VEGF-induced BRB breakdown, rats received intravitreal injections of 50 ng recombinant mouse VEGF164 in one eye and PBS in the other eye and were treated intravenously with aprotinin (50,000KIU every eight hours) or polyclonal anti-AZ antibody (1 μg). BRB breakdown and retinal leukostasis were quantified 24 hours after VEGF injection.
Rats received intravitreous injections of 5 μl of sterile phosphate-buffered saline (PBS) containing 50 ng VEGF164 (R&D Systems, Minneapolis, Minn.) in one eye and 5 μl of sterile phosphate-buffered saline (PBS) in the contralateral eye. The retinas were analyzed for leakage 24 hours after VEGF injection.
In a second group, the rats were additionally treated intravenously with aprotinin (Trasylol®, Bayer Pharmaceuticals). 50,000KIU of aprotinin (5 ml of Trasylol®) was administered intravenously through the tail vein 1 hour before, as well as 8 hours and 16 hours after, the intravitreal injection of VEGF. The retinas were analyzed 24 hours after VEGF administration.
In a third group, rats were treated with intravitreous injections of 1 μg of goat anti-human azurocidin polyclonal antibody (5 μl of a 200 μg/ml antibody solution, Santa Cruz biotechnology) or control goat isotype IgG (R&D system) in the VEGF injected eye 6 hours after VEGF administration.
Retinal vascular permeability was quantified as previously described (Qaum et al. (2002) supra, Xu et al. (2001) INVEST. OPHTHALMOL. VIS. SCI. 42; 789-94). After the animals were deeply anesthetized, Evans blue dye (Sigma) dissolved in normal saline (30 mg/ml) was injected through the tail vein over 10 seconds at a dosage of 45 mg/kg. Blood samples were obtained from the left ventricle, just before perfusion at 2 hours, to obtain the time-average Evans blue dye plasma concentration. These blood samples were centrifuged at 12,000 rpm for 15 minutes and diluted to 1/10,000th of their initial concentration in formamide (Sigma). The background-subtracted absorbance was determined by measuring each sample at 620 nm (the absorbance maximum for Evans blue dye in formamide) and 740 nm (the absorbance minimum) with a spectrophotometer. The concentration of dye in the plasma was calculated from a standard curve of Evans blue dye in formamide. After the dye had circulated for 2 hours, the chest cavity was opened, and the rats were perfused through the left ventricle with 1% paraformaldehyde in citrate buffer (0.05 M, pH 3.5) at a physiological pressure of 120 mm Hg. The retinas were then carefully dissected under an operating microscope. After measurement of the retinal weight, Evans blue dye was extracted by incubating each retina in 0.180 ml of formamide for 18 hours at 70° C. The extract was ultracentrifuged at a speed of 14,000 rpm for 60 minutes at 25° C. Sixty microliters of the supernatant was used for spectrophotometric measurement at 620 nm and 740 nm. The background-subtracted absorbance was determined by measuring each sample at 620 nm (the absorbance maximum for Evans blue dye in formamide) and 740 nm (the absorbance minimum). The concentration of dye in the extracts was calculated from a standard curve of Evans blue dye in formamide. […]

aprotinin
number of leukocytes found intravitreally [1]: 119.2±8.4
retinal leukostasis (firmly adhering leukocytes per retina) [2]: 32.4±2.9 cells
BRB breakdown as percentage of the value in control eyes ([3]; 24 hours after intravitreal 50 ng VEGF): 110%±21
Evans Blue retinal leakage in VEGF-injected eye ([3]; 24 hours after intravitreal 50 ng VEGF, PBS eye 9.6±1.4 (VEGF alone), 5.4±1.4 (with aprotinin)): 6.2±1.5 μl plasma/g retina/h
fold increase in retinal vascular leakage compared to the PBS injected eye ([3]; 24 hours after intravitreal 50 ng VEGF, aprotinin i.v. 50,000KIU every eight hours, antibody 1 μg intravitreal 6 hours after VEGF): 1.1±0.21 fold
suppression of VEGF-induced blood retinal barrier breakdown ([3]; 24 hours after intravitreal 50 ng VEGF, aprotinin i.v., antibody intravitreal 6 hours after VEGF): 95%
basal levels of retinal Evans Blue leakage ([3]; PBS-injected eye, i.v. aprotinin): did not reduce the basal levels of retinal Evans Blue leakage
